Key:
Assay type in all cases: physicochemical
[1] = Physical state of the isolated dye; conditions: for Physical State of Dye: after isolation according to Procedure B
Excerpt: alternatively, the crude liquid dye may be taken up with a volatile solvent and the solvent removed during the drying process to yield a non-volatile liquid colorant.

[2] = Storage solubility in No. 1 and No. 2 Heating Oil at ambient temperature and -10° C.
Experimental: The resultant mixtures were stored at ambient temperatures (20° to 25° C.) and at -10° C. Where any separation of dye occurred, the dye content of the remaining solution was determined colorimetrically.

[3] = Storage solubility in xylene at 20°-25° C. and -10° C.
Experimental: The solutions obtained were stored at 20°-25°C. and at -10° C. Where any separation of dye occurred, the dye content of the remaining solution was determined colorimetrically.

[4] = Dissolution of 58% dye in 42% fuel by warming, cooling to 25° C. (six heating/diesel oils); conditions: 58% by weight dye, warmed, cooled to 25° C.
Experimental: No. 2 Regular Grade Diesel Oil
Each dye-fuel oil mixture was warmed with stirring and then cooled to 25° C.

[5] = Rate and extent of dissolution in No. 1 and No. 2 Heating Oils at 25° C. (colorimetric); conditions: for Percent Dissolved: 25° C.
Experimental: The solubility properties of each of the dyes of Examples 16-41 were evaluated in the fuels No. 1 and No. 2 Heating Oils, respectively. The procedure was as follows:
Where the dyes are solid dyes, excess of pulverized solid dye, far beyond that which would dissolve, i.e., 30 to 35% dye, was added to the respective oils at 25° C. and agitated at constant speed. Samples were removed at 1, 10 and 20 minute intervals, filtered, and the amount of dissolved dye determined colorimetrically.
The tarry non-solid dyes were charged in proportions of 50-60% dye to 50-40% oil rather than 30-35% used for the solid dyes. In fact, it was very difficult to stir the tarry dye-fuel oil mixture at a dye concentration of 50%. Samples for these dyes were taken after 2 minutes. The longer initial time for the tarry dyes was to permit reasonable contact between solvent and the viscous, condensed dye.

[6] = No. 1 Fuel Oil, 1 Minute, aminoazobenzene dyes (Table 4)
[7] = No. 1 Fuel Oil, 10 Minutes, aminoazobenzene dyes (Table 4)
[8] = No. 1 Fuel Oil, 20 Minutes, aminoazobenzene dyes (Table 4)
[9] = No. 2 Fuel Oil, 1 Minute, aminoazobenzene dyes (Table 5)
[10] = No. 2 Fuel Oil, 10 Minutes, aminoazobenzene dyes (Table 5)
[11] = No. 2 Fuel Oil, 20 Minutes, aminoazobenzene dyes (Table 5)
[12] = No. 1 Fuel Oil, 1 Minute, aminoazotoluene dyes (Table 6)
[13] = No. 1 Fuel Oil, 10 Minutes, aminoazotoluene dyes (Table 6)
[14] = No. 1 Fuel Oil, 20 Minutes, aminoazotoluene dyes (Table 6)
[15] = No. 2 Fuel Oil, 1 Minute, aminoazotoluene dyes (Table 7)
[16] = No. 2 Fuel Oil, 10 Minutes, aminoazotoluene dyes (Table 7)
[17] = No. 2 Fuel Oil, 20 Minutes, aminoazotoluene dyes (Table 7)

Row | Physical State of Dye [1] | Percent Dissolved [5, 6] | Percent Dissolved [5, 7] | Percent Dissolved [5, 8] | Percent Dissolved [5, 9] | Percent Dissolved [5, 10] | Percent Dissolved [5, 11] | Percent Dissolved [5, 12] | Percent Dissolved [5, 13] | Percent Dissolved [5, 14] | Percent Dissolved [5, 15] | Percent Dissolved [5, 16] | Percent Dissolved [5, 17] | SMILES | also measured
1 | – | – | – | – | – | – | – | – | – | – | – | – | – | CCCCC(CC)CNc1ccc2ccccc2c1N=Nc1ccc(N=Nc2ccccc2)cc1C (stereo not shown) [Example 3] | Physical State of Dye at 20° C. ([1]; 20° C.): Liquid; Solubility (% by Wt.) ([2]; No. 1 Heating Oil, 20° C.-25° C. (Table 8)): Complete; Solubility (% by Wt.) ([2]; No. 1 Heating Oil, -10° C. (Table 8)): Complete; Solubility (% by Wt.) ([2]; No. 2 Heating Oil, 20° C.-25° C. (Table 9)): Complete; Solubility (% by Wt.) ([2]; No. 2 Heating Oil, -10° C. (Table 9)): Complete; Solubility (% by Wt.) ([3]; 20° C.-25° C. (Table 12)): Complete; Solubility (% by Wt.) ([3]; -10° C. (Table 12)): Complete; behavior of dye-fuel oil mixture on cooling/storage [4]: completely soluble and remained soluble at temperatures ranging from -10 °C to 25 °C
2 | Solid | 1.05% | 1.36% | 1.48% | 1.49% | 1.64% | 1.78% | – | – | – | – | – | – | CCNc1ccc2ccccc2c1N=Nc1ccc(N=Nc2ccccc2)cc1 [Example 16] | –
3 | Solid | 1.99% | 1.79% | 1.57% | 1.83% | 2.03% | 2.12% | – | – | – | – | – | – | CCCCNc1ccc2ccccc2c1N=Nc1ccc(N=Nc2ccccc2)cc1 [Example 17] | –
4 | Solid | 2.02% | 3.15% | 3.57% | 0.66% | 0.68% | 0.73% | – | – | – | – | – | – | COCCCNc1ccc2ccccc2c1N=Nc1ccc(N=Nc2ccccc2)cc1 [Example 18] | –
5 | Solid | 0.06% | 0.06% | 0.06% | 0.14% | 0.17% | 0.21% | – | – | – | – | – | – | OCCOCCNc1ccc2ccccc2c1N=Nc1ccc(N=Nc2ccccc2)cc1 [Example 19] | –
6 | Solid | 4.65% | 4.47% | 4.35% | 5.12% | 5.12% | 5.27% | – | – | – | – | – | – | CCCCCCNc1ccc2ccccc2c1N=Nc1ccc(N=Nc2ccccc2)cc1 [Example 20] | –
7 | Solid | 4.01% | 2.25% | 2.30% | 3.10% | 3.10% | 3.21% | – | – | – | – | – | – | c1ccc(N=Nc2ccc(N=Nc3c(NC4CCCCC4)ccc4ccccc34)cc2)cc1 [Example 21] | –
8 | – | 3.68% | – | 3.68% | 0.57% | 0.58% | 0.61% | – | – | – | – | – | – | CCOCCOCCCNc1ccc2ccccc2c1N=Nc1ccc(N=Nc2ccccc2)cc1 [Example 22] | solubility in fuel oils (in words) ([5]; No. 1 and No. 2 fuel oils): low solubility in both fuels much like that of a solid dye
9 | Solid | 4.92% | 7.83% | 7.56% | 7.11% | 8.10% | 8.90% | – | – | – | – | – | – | CCCCCCCNc1ccc2ccccc2c1N=Nc1ccc(N=Nc2ccccc2)cc1 [Example 23] | –
10 | Solid | 12.05% | 7.26% | 5.96% | 5.48% | 6.25% | 6.25% | – | – | – | – | – | – | CCCCCCCCNc1ccc2ccccc2c1N=Nc1ccc(N=Nc2ccccc2)cc1 [Example 24] | –
11 | Solid | 4.97% | 5.12% | 5.63% | 6.36% | 7.25% | 8.14% | – | – | – | – | – | – | CCCCCCCCCCNc1ccc2ccccc2c1N=Nc1ccc(N=Nc2ccccc2)cc1 [Example 26] | –
12 | Solid | 2.85% | 4.60% | 5.38% | 7.46% | 8.17% | 9.06% | – | – | – | – | – | – | CCCCCCCCCCCCNc1ccc2ccccc2c1N=Nc1ccc(N=Nc2ccccc2)cc1 [Example 28] | –
13 | Solid | – | – | – | – | – | – | 0.24% | 0.32% | 0.37% | 0.29% | 0.37% | 0.39% | CCNc1ccc2ccccc2c1N=Nc1ccc(N=Nc2ccccc2C)cc1C [Example 29] | –
14 | Solid | – | – | – | – | – | – | 0.19% | 0.26% | 0.26% | 0.27% | 0.29% | 0.35% | CCCCNc1ccc2ccccc2c1N=Nc1ccc(N=Nc2ccccc2C)cc1C [Example 30] | –
15 | Solid | – | – | – | – | – | – | 0.58% | 0.57% | 0.58% | 2.96% | 4.21% | 4.96% | COCCCNc1ccc2ccccc2c1N=Nc1ccc(N=Nc2ccccc2C)cc1C [Example 31] | –
16 | Solid | – | – | – | – | – | – | 0.09% | 0.12% | 0.13% | 0.20% | 0.15% | 0.15% | Cc1ccccc1N=Nc1ccc(N=Nc2c(NCCOCCO)ccc3ccccc23)c(C)c1 [Example 32] | –
17 | Solid | – | – | – | – | – | – | 1.31% | 1.28% | 1.27% | 0.93% | 1.01% | 1.11% | CCCCCCNc1ccc2ccccc2c1N=Nc1ccc(N=Nc2ccccc2C)cc1C [Example 33] | –
18 | Solid | – | – | – | – | – | – | 0.82% | 0.87% | 0.94% | 0.99% | 1.05% | 1.09% | Cc1ccccc1N=Nc1ccc(N=Nc2c(NC3CCCCC3)ccc3ccccc23)c(C)c1 [Example 34] | –
19 | Solid | – | – | – | – | – | – | 5.33% | 6.23% | 7.40% | 3.70% | – | 3.97% | CCOCCOCCCNc1ccc2ccccc2c1N=Nc1ccc(N=Nc2ccccc2C)cc1C [Example 35] | –
20 | Solid | – | – | – | – | – | – | 1.42% | 1.56% | 1.65% | 1.77% | 2.27% | 2.59% | CCCCCCCNc1ccc2ccccc2c1N=Nc1ccc(N=Nc2ccccc2C)cc1C [Example 36] | –
21 | Solid | – | – | – | – | – | – | 1.38% | 1.39% | 1.78% | 2.26% | 2.89% | 2.69% | CCCCCCCCNc1ccc2ccccc2c1N=Nc1ccc(N=Nc2ccccc2C)cc1C [Example 37] | –
22 | Solid | – | – | – | – | – | – | 1.09% | 1.13% | 1.14% | 1.30% | 1.37% | 1.48% | CCCCCCCCCCNc1ccc2ccccc2c1N=Nc1ccc(N=Nc2ccccc2C)cc1C [Example 39] | –
23 | Solid | – | – | – | – | – | – | 3.29% | 4.04% | 4.50% | 4.48% | 4.68% | 5.21% | CCCCCCCCCCCCNc1ccc2ccccc2c1N=Nc1ccc(N=Nc2ccccc2C)cc1C [Example 41] | –
